Measured values from patent US12590118B2, “Salt and crystal form of steroid derivative regulator” (Shanghai Hansoh Biomedical Co., Ltd., priority 2019, dated 2026).

Tests used:
[1] = molecular target: T1, human GABAA receptor α1, β2 and γ2 subunit (HEK293T cell line) (Homo sapiens, UniProt P14867+P47870); assay: Positive regulatory effect on GABAA receptor, manual patch clamp; assay type: cell-based; conditions: whole-cell current, 1 μM GABA
T1 construct: expressed in transfected cells
Procedure: The objective of this test example is to determine the positive regulatory effect of the compound on GABAA receptor by the electrophysiological manual patch clamp method.
Manual patch clamp system HEKA EPC10 USB signal amplifier and digital conversion system (purchased from HEKA Electronics, Germany), centrifuge (Eppendorf, etc.), carbon dioxide incubator (purchased from Thermo, etc.), biological safety cabinet (Thermo, etc.), pipette (purchased from Eppendorf, etc.).
The cells were grown in a culture dish with DMEM medium (purchased from Invitrogen), and cultured in an incubator at 37° C. and 5% CO2. Before the electrophysiological experiment, the cells were transferred to a round glass slide placed in the culture dish, and grown in the same culture medium and under the same culture condition as above. The density of cells on each round glass slide should meet the requirement that most cells were independent and individual.
Each test compound was diluted in gradient with DMSO to obtain a stock solution, which was then diluted with extracellular fluid by 1,000-fold to obtain the final test concentration. The final concentration of DMSO in the compound solution with each concentration was 0.1%. The experiment used the manual patch clamp system HEKA EPC10 USB signal amplifier and digital conversion system for whole cell current recording. The round glass slide with HEK293T GABAA cells grown on the surface was taken out of the culture dish, and placed in the electrophysiological recording tank under the inverted microscope. The recording tank was continuously perfused with extracellular fluid. During the experiment, the whole-cell current recording technology was used to record the chloride current of the GABAA channel. 1 μM GABA was used to activate the chloride current of the GABAA channel of each cell as an initial control. 1 μM GABA acted on the cell through the drug perfusion system to induce the chloride current of the GABAA channel, the action time was about 3 to 5 seconds, and the current value was used as the initial control value. The test concentration of compound was perfused and incubated for 2 to 5 minutes. […] GABA solution (mixed with the test concentration of compound) was given to the cells to observe the enhancement effect of the test compound on the current induced by 1 μM GABA. When the cell state was stable, the test compound acted on the same cell from low to high concentration to record the enhancement effect of the induced current.
The experimental data was analyzed by HEKA Patchmaster, Microsoft Excel and the data analysis software provided by Graphpad Prism.

[2] = Hygroscopicity experiment (DVS); assay type: physicochemical
Procedure: The hygroscopicity of crystal forms I, II and III of the free base of Example 40 under different relative humidity conditions was investigated, so as to provide a basis for screening of the crystal form and salt of the compound, production and storage.
10 to 15 mg of the free base of Example 40 was placed in the sample chamber of DVS. DVS was carried out, and the vapour sorption weight gain percentage of the compound at 80% RH was recorded at the same time.

T1 sequence (P14867 28-456): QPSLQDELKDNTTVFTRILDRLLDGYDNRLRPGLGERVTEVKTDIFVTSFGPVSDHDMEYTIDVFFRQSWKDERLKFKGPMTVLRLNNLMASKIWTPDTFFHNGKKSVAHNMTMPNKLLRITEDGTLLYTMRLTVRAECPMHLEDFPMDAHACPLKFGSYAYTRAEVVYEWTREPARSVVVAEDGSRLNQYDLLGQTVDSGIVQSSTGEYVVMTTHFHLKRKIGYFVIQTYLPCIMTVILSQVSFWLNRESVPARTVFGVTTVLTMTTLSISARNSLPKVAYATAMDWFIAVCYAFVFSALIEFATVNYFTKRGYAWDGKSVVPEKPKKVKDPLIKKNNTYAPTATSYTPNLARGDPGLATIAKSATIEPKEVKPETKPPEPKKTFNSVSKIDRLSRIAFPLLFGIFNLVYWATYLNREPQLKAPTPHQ
T1 sequence (P47870 25-512 limits assumed): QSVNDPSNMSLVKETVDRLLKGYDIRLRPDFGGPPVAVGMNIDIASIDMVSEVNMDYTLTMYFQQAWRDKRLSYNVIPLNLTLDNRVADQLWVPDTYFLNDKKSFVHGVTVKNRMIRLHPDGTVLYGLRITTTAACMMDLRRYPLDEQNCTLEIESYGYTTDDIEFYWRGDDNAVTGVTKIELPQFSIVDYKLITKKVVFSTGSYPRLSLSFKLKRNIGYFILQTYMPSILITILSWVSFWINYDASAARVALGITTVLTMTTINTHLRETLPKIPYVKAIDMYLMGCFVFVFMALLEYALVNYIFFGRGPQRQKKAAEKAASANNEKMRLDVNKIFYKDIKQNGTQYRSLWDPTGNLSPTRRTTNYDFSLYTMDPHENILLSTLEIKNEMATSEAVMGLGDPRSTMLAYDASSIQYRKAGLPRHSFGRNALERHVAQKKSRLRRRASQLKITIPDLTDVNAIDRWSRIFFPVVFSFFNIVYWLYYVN
T1 sequence (P18507 40-475 partner): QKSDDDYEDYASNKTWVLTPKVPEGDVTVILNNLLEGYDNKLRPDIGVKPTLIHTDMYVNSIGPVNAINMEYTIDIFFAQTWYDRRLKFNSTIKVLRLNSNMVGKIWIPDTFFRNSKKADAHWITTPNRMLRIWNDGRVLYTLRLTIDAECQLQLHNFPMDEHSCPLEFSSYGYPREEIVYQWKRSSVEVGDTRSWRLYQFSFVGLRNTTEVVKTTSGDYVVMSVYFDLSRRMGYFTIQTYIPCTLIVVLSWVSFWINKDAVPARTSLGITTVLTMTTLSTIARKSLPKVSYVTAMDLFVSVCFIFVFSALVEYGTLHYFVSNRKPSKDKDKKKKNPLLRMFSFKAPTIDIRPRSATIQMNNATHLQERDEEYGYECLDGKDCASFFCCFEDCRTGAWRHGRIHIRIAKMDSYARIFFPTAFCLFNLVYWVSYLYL

| Structure (SMILES) | EC50 [1] [nM] | hygroscopicity (in words) ([2]; DVS) | Hygroscopicity (25° C./80% RH) ([2]; DVS vapour sorption weight gain at 80% RH, 25° C.) [%] |
| --- | --- | --- | --- |
| C[C@@H]1C[C@H](C(=O)Cn2ccc(C#N)n2)[C@@]2(C)CC[C@H]3[C@@H](CC[C@@H]4C[C@](C)(O)CC[C@@H]43)[C@H]12 [Example 40, 1-(2-((3R,5R,8R,9R,10S,13S,14S,15R,17S)-3-Hydroxy-3,13,15-trimethylhexadecahydro-1H-cyclopenta[a]phenanthren-17-yl)-2-oxoethyl)-1H-pyrazole-3-carbonitrile] | 57 | – | – |
| C[C@@H]1C[C@H](C(=O)Cn2ccc(C#N)n2)[C@@]2(C)CC[C@H]3[C@@H](CC[C@@H]4C[C@](C)(O)CC[C@@H]43)[C@H]12 [Crystal form I, 1-(2-((3R,5R,8R,9R,10S,13S,14S,15R,17S)-3-Hydroxy-3,13,15-trimethylhexadecahydro-1H-cyclopenta[a]phenanthren-17-yl)-2-oxoethyl)-1H-pyrazole-3-carbonitrile] | – | no hygroscopicity | 0.07 |
